Test results as given in ChEMBL document CHEMBL4118098, “Discovery of DS28120313 as a potent orally active hepcidin production inhibitor: Design and optimization of novel 4,6-disubstituted indazole derivatives” (Bioorg Med Chem Lett, 2017).
One block for each molecule: values may come before it.

Legend:
[1] = target: Serine/threonine-protein kinase MARK1 (Homo sapiens) (UniProt Q9P0L2); assay: Inhibition of MARK1 (unknown origin) at 0.19 uM relative to control
[2] = target: Hepatocyte growth factor receptor (Homo sapiens) (UniProt P08581); assay: Inhibition of MET (unknown origin) at 0.19 uM relative to control
[3] = target: Casein kinase I isoform gamma-2 (Homo sapiens) (UniProt P78368); assay: Inhibition of CK1-gamma2 (unknown origin) at 0.19 uM relative to control
[4] = tested on: Tyrosine-protein kinase ABL1 (Homo sapiens), P00519 [T315I]; assay: Inhibition of Abl T315I mutant (unknown origin) at 0.19 uM relative to control
[5] = tested on: Platelet-derived growth factor receptor alpha (Homo sapiens), P16234 [D842V]; assay: Inhibition of PDGFRA D842V mutant (unknown origin) at 0.19 uM relative to control
[6] = target: RAF proto-oncogene serine/threonine-protein kinase (Homo sapiens) (UniProt P04049); assay: Inhibition of c-Raf (unknown origin) at 0.19 uM relative to control
[7] = tested on: Tyrosine-protein kinase ABL1 (Homo sapiens), P00519 [H396P]; assay: Inhibition of Abl H396P mutant (unknown origin) at 0.19 uM relative to control
[8] = target: Calcium/calmodulin-dependent protein kinase type II subunit gamma (Homo sapiens) (UniProt Q13555); assay: Inhibition of CaMK2-gamma (unknown origin) at 0.19 uM relative to control
[9] = target: Rho-associated protein kinase 1 (Homo sapiens) (UniProt Q13464); assay: Inhibition of ROCK1 (unknown origin) at 0.19 uM relative to control
[10] = target: Serine/threonine-protein kinase PAK 4 (Homo sapiens) (UniProt O96013); assay: Inhibition of PAK4 (unknown origin) at 0.19 uM relative to control
[11] = target: Casein kinase I isoform gamma-3 (Homo sapiens) (UniProt Q9Y6M4); assay: Inhibition of CK1-gamma3 (unknown origin) at 0.19 uM relative to control
[12] = target: Serine/threonine-protein kinase PAK 3 (Homo sapiens) (UniProt O75914); assay: Inhibition of PAK3 (unknown origin) at 0.19 uM relative to control
[13] = target: Vascular endothelial growth factor receptor 3 (Homo sapiens) (UniProt P35916); assay: Inhibition of FLT4 (unknown origin) at 0.19 uM relative to control
[14] = target: Receptor-type tyrosine-protein kinase FLT3 (Homo sapiens) (UniProt P36888); assay: Inhibition of FLT3 (unknown origin) at 0.19 uM relative to control
[15] = target: Serine/threonine-protein kinase D3 (Homo sapiens) (UniProt O94806); assay: Inhibition of PKD3 (unknown origin) at 0.164 uM relative to control
[16] = target: Aurora kinase C (Homo sapiens) (UniProt Q9UQB9); assay: Inhibition of AurC (unknown origin) at 0.164 uM relative to control
[17] = tested on: Tyrosine-protein kinase ABL1 (Homo sapiens), P00519 [H396P]; assay: Inhibition of Abl H396P mutant (unknown origin) at 0.164 uM relative to control
[18] = target: AMP-activated protein kinase, AMPK (Homo sapiens) (UniProt P54646+O43741+P54619+Q9UGJ0+Q9Y478+Q13131+Q9UGI9); assay: Inhibition of AMPK (unknown origin) at 0.164 uM relative to control; format: protein-complex assay
[19] = target: MAP/microtubule affinity-regulating kinase 3 (Homo sapiens) (UniProt P27448); assay: Inhibition of c-TAK1 (unknown origin) at 0.164 uM relative to control
[20] = target: STE20-like serine/threonine-protein kinase (Homo sapiens) (UniProt Q9H2G2); assay: Inhibition of SLK (unknown origin) at 0.164 uM relative to control
[21] = target: MAP kinase-interacting serine/threonine-protein kinase 1 (Homo sapiens) (UniProt Q9BUB5); assay: Inhibition of MNK1 (unknown origin) at 0.164 uM relative to control
[22] = tested on: Epidermal growth factor receptor (Homo sapiens), P00533 [T790M]; assay: Inhibition of EGFR T790M mutant (unknown origin) at 0.164 uM relative to control
[23] = target: Inhibitor of nuclear factor kappa-B kinase subunit epsilon (Homo sapiens) (UniProt Q14164); assay: Inhibition of IKBKE (unknown origin) at 0.164 uM relative to control
[24] = target: Proto-oncogene tyrosine-protein kinase receptor Ret (Homo sapiens) (UniProt P07949); assay: Inhibition of RET (unknown origin) at 0.164 uM relative to control
[25] = Lipophilicity, log D of the compound; format: physicochemical; details: octanol/water
[26] = target: Cyclin-dependent kinase 5/CDK5 activator 1 (Homo sapiens) (UniProt Q00535+Q15078); assay: Inhibition of CDK5/p25 (unknown origin) at 0.164 uM relative to control; format: protein-complex assay
[27] = target: Protein kinase C alpha type (Homo sapiens) (UniProt P17252); assay: Inhibition of PKC-alpha (unknown origin) at 0.164 uM relative to control
[28] = target: T1, Mitogen-activated protein kinase 12 (Homo sapiens) (UniProt P53778); assay: Inhibition of p38-gamma (unknown origin) at 0.164 uM relative to control
T1 sequence (whole entry): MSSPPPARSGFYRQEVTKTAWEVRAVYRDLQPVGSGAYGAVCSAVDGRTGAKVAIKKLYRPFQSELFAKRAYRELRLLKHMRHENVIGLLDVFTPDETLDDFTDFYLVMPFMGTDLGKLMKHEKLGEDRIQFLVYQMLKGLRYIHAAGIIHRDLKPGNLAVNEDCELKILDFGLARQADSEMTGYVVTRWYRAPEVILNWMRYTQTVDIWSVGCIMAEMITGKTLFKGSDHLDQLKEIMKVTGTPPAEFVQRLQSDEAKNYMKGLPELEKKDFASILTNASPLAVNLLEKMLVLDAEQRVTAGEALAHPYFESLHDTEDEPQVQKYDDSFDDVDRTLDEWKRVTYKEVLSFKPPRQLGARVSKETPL

[29] = target: Mitogen-activated protein kinase kinase kinase kinase 5 (Homo sapiens) (UniProt Q9Y4K4); assay: Inhibition of KHS1 (unknown origin) at 0.164 uM relative to control
[30] = target: Mitogen-activated protein kinase 14 (Homo sapiens) (UniProt Q16539); assay: Inhibition of p38a (unknown origin) at 0.164 uM relative to control
[31] = target: Cyclin-dependent kinase 3 (Homo sapiens) (UniProt Q00526); assay: Inhibition of CDK3 (unknown origin) at 0.164 uM relative to control
[32] = tested on: Hepatocyte growth factor receptor (Homo sapiens), P08581 [M1250T]; assay: Inhibition of MET M1250T mutant (unknown origin) at 0.164 uM relative to control
[33] = target: Casein kinase I isoform gamma-3 (Homo sapiens) (UniProt Q9Y6M4); assay: Inhibition of CK1-gamma3 (unknown origin) at 0.45 uM relative to control
[34] = target: Serine/threonine-protein kinase PAK 2 (Homo sapiens) (UniProt Q13177); assay: Inhibition of PAK2 (unknown origin) at 0.45 uM relative to control

- inhibition [1]: -5.3%
- inhibition [2]: 7.3%
- inhibition [3]: 3.3%
- inhibition [4]: 51.7%
- inhibition [5]: 99.7%
- inhibition [6]: 4.7%
- inhibition [7]: 86.3%
- inhibition [8]: -4%
- inhibition [9]: -7.3%
- inhibition [10]: 0.7%
- inhibition [11]: 1%
- inhibition [12]: -0.7%
- inhibition [13]: 28.3%
- inhibition [14]: 77.3%
Compound: Cc1[nH]nc(C2CC2)c1-c1ccc2c(-c3ccc(N4CCN(C)CC4)nc3)n[nH]c2c1

- inhibition [15]: 2.7%
- inhibition [16]: 6.3%
- inhibition [17]: 1.7%
- inhibition [18]: 10.7%
- inhibition [19]: 2%
- inhibition [20]: 4.7%
- inhibition [21]: 3.3%
- inhibition [22]: 1.3%
- inhibition [23]: 0.3%
- inhibition [24]: 7.3%
- logD [25]: 3.1
- inhibition [26]: 6.3%
- inhibition [27]: 1.3%
- inhibition [28]: 0.3%
- inhibition [29]: 8.3%
- inhibition [30]: 5.7%
- inhibition [31]: -8.3%
- inhibition [32]: -0.3%
Compound: COC(=O)Nc1cc(-c2c(C3CC3)n[nH]c2C)cc2[nH]ncc12

- inhibition [33]: -0.7%
- inhibition [34]: -2.7%
Compound: Cc1n[nH]c(C)c1-c1ccc2c(NC(=O)c3ccc(N4CCN(C)CC4)cc3)n[nH]c2c1
